Data on two compounds can be found in paper PMC8476755 (Frontiers in Chemistry, 2021).

The target of this test is T1, GAT3 L314Q (Homo sapiens, UniProt P48066, L314Q).
T1 construct: expressed in transfected cells; host or cells: tsA201 (transformed HEK293), transient
T1 sequence (P48066 1-632 L314Q): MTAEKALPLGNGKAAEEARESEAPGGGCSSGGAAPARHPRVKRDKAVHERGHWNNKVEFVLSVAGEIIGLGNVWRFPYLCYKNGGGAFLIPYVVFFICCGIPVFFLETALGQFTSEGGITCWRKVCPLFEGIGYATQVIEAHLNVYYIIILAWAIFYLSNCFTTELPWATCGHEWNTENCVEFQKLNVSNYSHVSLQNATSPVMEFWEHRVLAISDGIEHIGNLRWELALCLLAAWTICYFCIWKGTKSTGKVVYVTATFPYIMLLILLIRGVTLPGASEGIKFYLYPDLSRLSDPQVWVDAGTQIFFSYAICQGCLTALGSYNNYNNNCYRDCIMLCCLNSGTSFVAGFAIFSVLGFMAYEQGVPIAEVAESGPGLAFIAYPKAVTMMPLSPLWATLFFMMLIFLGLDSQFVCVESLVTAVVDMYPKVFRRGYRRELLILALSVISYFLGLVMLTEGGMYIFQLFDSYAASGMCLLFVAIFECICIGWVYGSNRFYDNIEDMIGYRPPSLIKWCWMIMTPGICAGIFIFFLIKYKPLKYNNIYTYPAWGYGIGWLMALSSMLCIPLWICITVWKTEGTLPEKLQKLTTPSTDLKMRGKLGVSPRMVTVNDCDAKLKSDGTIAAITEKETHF
Nature of the test: [3H]GABA uptake assay, transient expression in tsA201 cells. The test is classed as cell-based. The note with it: for Increase in inhibitory activity relative to wt: GAT3 L314Q vs GAT3 wt; for IC50: GAT3 L314Q, tsA201 cells. The text has this:
According to the docking and MD results, the sidechains of Q299 and E52 were identified to form crucial interactions with the protonated nitrogen of both compounds. The residue Q299 in human BGT1 corresponds to leucine in all other GATs (human, rat, mouse), while E52 corresponds to tyrosine in GAT1 (human, rat, mouse) but is conserved among GAT2, GAT3 and BGT1 (human, rat, mouse) (Figure 6A) ([Kickinger et al., 2019]). Thus, we engineered the corresponding mutants Q299L and E52Y in human BGT1 and predicted that the introduction of these mutations would lead to decreased activity of both bicyclo-GABA and 2 due to the loss of essential hydrogen bond interactions. Furthermore, we wanted to test the double mutant E52Y + Q299L. However, in a previous study this mutant was proven non-functional ([Kickinger et al., 2020]). Instead, we generated the double mutant E52A + Q299L as well as the single mutant E52A. For these mutants we predicted decreased activity. Lastly, the reciprocal mutation to BGT1 Q299L was created in GAT3 (L314Q), ideally expecting a gain-of-function.
FIGURE 6 (A) Pocket alignment of the orthosteric site of the four GAT subtypes colored according to the default ClustalX color scheme ([Larkin et al., 2007]). The pocket was defined as all corresponding GAT residues (15 in total) that are within a distance of 4.5 Å of the co-crystallized ligand leucine in the homologous LeuT crystal structure (PDB ID 2A65) ([Yamashita et al., 2005]) according to the alignment by Kickinger et al. ([Kickinger et al., 2019]). The mutated residues in BGT1 and the corresponding residues in GAT1-3 are indicated by a red box. The numbering of all residues within the orthosteric pocket can be found in the Supplementary Table S1.
The tsA201 cell line (a transformed HEK293 cell line), the Flp-In CHO cell lines stably expressing human (h) GATs and the HEK293 cell line stably expressing human α1β2γ2 GABAA receptors have been described previously and were cultured accordingly ([Al-Khawaja et al., 2014]; [Falk-Petersen et al., 2020]). The tsA201 cell line used for transient expression of hGATs was transfected with DNA constructs (8 μg per 10 cm plate) using 40 μL PolyFect transfection reagent according to the manufacturer’s protocol (Qiagen). All DNA constructs used have been described previously: wt hBGT1, wt GAT3 ([Kvist et al., 2009]), BGT1 Q299, GAT3 L314Q ([Jørgensen et al., 2017]), hBGT E52Y, BGT1 E52A and BGT1 E52A + Q299L ([Kickinger et al., 2020]).
Briefly, cells were seeded in white 96-well plates (White Opaque Tissue Culture (TC) plated 96-well Microplate) pre-coated with PDL. Medium was removed on the following day and cells washed with 100 µL/well assay buffer (HBSS supplemented with 20 mM HEPES, 1 mM CaCl2 and 1 mM MgCl2, pH 7.4). […] The cells were washed 3 times with 100 µL/well ice-cold assay buffer, 150 µL/well MicroScint™20 was subsequently added before the plate was shaken for at least 1 h. The plate was counted in a Packard TopCounter microplate scintillation counter (PerkinElmer) for 3 min per well. Typical counts per minute for the different GATs were in the range of: wt hBGT1 (100–4,000), BGT1 Q299 (100–1,000), hBGT E52Y (150–500), BGT1 E52A (150–8,000), BGT1 E52A + Q299L (150–500), wt GAT3 (200–8,000), GAT3 L314Q (100–1,500), wt GAT1 (100–10,000) and wt GAT2 (150–7,500). […] Data presented is the pooled data of at least three independent experiments with three technical replicates if not stated otherwise in figure legends. Concentration–response curves were fitted by non-linear regression to the sigmoidal concentration-response model with GraphPad Prism (version 9.0.0, GraphPad Software, San Diego, CA, United States) as described ([Lie et al., 2020]).

Where two headings read alike, the source gives them in different places.

With `CN[C@@]12CC[C@H](C(=O)O)[C@@H]1C2` [compound 2], the “Increase in inhibitory activity relative to wt” value was “not increased”. The IC50 (read-out: IC50) came out at 291 µM.
For `N[C@@]12CC[C@H](C(=O)O)[C@@H]1C2` [bicyclo-GABA, (1S,2S,5R)-5-aminobicyclo[3.1.0]hexane-2-carboxylic acid], the “Increase in inhibitory activity relative to wt” value is on record as 38 times. Also, where the note is “read-out: IC50”, the IC50 is 16 µM. The IC50 (read-out: pIC50 ± S.E.M. (converted)) is 12.6 µM.
